Values quoted from earlier work as cited in patent US20160270390A1, “POLYMERIC FILM FOR AG[…] STORAGE, […] THEREFROM AND RELATED METHODS OF AG[…] STORAGE” (priority 2012, published 2016).

System: insect pests
Conditions: Zimbabwe, grain damage of 92% reported due to insect pests

CCOC(=O)CC(SP(=S)(OC)OC)C(=O)OCC (stereo not shown) [malthion]
reduction of grain damage in stored maize: 10%
